# Where two headings read alike, the source gives them in different places. Numbered stars: 1 amine (or outer) side, 2 acyl side, 3 side chain; on linkers, the order of the positions; unused ones are H or OH. Square brackets hold non-standard residues; d marks the D form. Peptide text beside a SMILES is read from it. X2 = CCC[C@H](C)N(CC(=O)[*:2])[*:1]; Nspe = C[C@H](NCC(=O)O)c1ccccc1; Nphe = O=C(O)CNCc1ccccc1; Nlys = NCCCCNCC(=O)O
# How the values were obtained:
# human erythrocytes = test: Hemolysis assay; assay type: cell-based
# Summary of the method: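 Human erythrocytes from fresh heparinised blood, 20 vol % in PBS pH 7.4, mixed 1:1 with 2-fold serial peptoid dilutions; PBS as 0% and 0.2 vol % Triton X-100 as 100% hemolysis. Incubated 1 h at 37 °C, diluted, centrifuged 1200 g for 15 min; supernatant A350 read.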
# [1] = MTS assay, metabolic inhibition; assay type: cell-based, mouse
# Summary of the method: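 NIH/3T3 cells seeded at 5,000 per well, grown a day, then exposed to serially diluted peptoids in HBSS together with MTS reagent. Absorbance at 490 nm read after 3 hours at 37° C.; mean of six replicates.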
# [2] = test system: Enterobacter aerogenes ATCC 35029; assay type: cell-based; conditions: ATCC 35029
# Procedure: (§1) Antibacterial assays. MICs were determined according to CLSI M7-A6 protocols in a 96-well microtiter plate. In test wells, 50 μL bacterial inoculum (5×10^5 CFU/ml) in Mueller-Hinton broth (MHB) was added to 50 μL peptoid solution in MHB (prepared by 1:2 serial dilutions). Positive controls contained 50 μL inoculum and 50 μL MHB without peptoid. […] MIC values reported were reproducible between three independent experimental replicates, each consisting of two parallel trials. Broad-spectrum antimicrobial susceptibility testing was performed against BSL2 pathogens by Nova Biologicals, Inc. (Conroe, Tex.).
# (§2) Broad-spectrum antibacterial assays. MICs of compounds were determined by microdilution procedure in Mueller-Hinton broth (MHB) in accordance with CLSI M7-A6 protocols in a manner similar to that described for the screen antibacterial assays. Inoculated microtiter plates were incubated at 35° C. for 24 hours prior to the result being recorded. Four ATCC strains that were used as standards are recommended by CLSI: Pseudomonas aeruginosa ATCC 27853, Escherichia coli ATCC 25922, Staphylococcus aureus ATCC 29213 and Enterococcus faecalis ATCC 29212. Other strains from the ATCC collection include Proteus vulgaris ATCC 49132, Proteus mirabilis ATCC 35659, Klebsiella pneumoniae ATCC 33495, Enterobacter aerogenes ATCC 35029 and Serratia marcescens ATCC 13880. S. aureus NRS100 (COL) is a well characterized methicillian-resistant S. aureus (MRSA) strain. The strains S. aureus VAN1 and S. aureus VAN2, vancomycin-resistant MRSA strains that were isolated in Michigan and Pennsylvania, were the first vancomycin-resistant strains clinically isolated. S. aureus NRS119 and S. aureus NRS120 are linezolid-resistant isolates from the Network on Antimicrobial Resistance in S. aureus (NARSA) collection. E. faecalis 99 and E. faecium 106 are vancomycin-resistant enterococcal strains.
# [3] = test system: Enterococcus faecalis ATCC 29212; assay type: cell-based; conditions: ATCC 29212
# Procedure: as §1, §2
# [4] = test system: Staphylococcus aureus NRS120; assay type: cell-based; conditions: NRS120
# Procedure: as §1, §2
# Enterococcus faecium 106 = assay type: cell-based; conditions: 106
# Procedure: as §1, §2
# [5] = test system: Staphylococcus aureus VAN2; assay type: cell-based; conditions: VAN2
# Procedure: as §1, §2
# [6] = test system: Escherichia coli ATCC 25922; assay type: cell-based; conditions: ATCC 25922
# Procedure: as §1, §2
# [7] = test system: Staphylococcus aureus ATCC 29213; assay type: cell-based; conditions: ATCC 29213
# Procedure: as §1, §2
# [8] = test system: Staphylococcus aureus VAN1; assay type: cell-based; conditions: VAN1
# Procedure: as §1, §2
# [9] = test system: Staphylococcus aureus NRS100 (COL); assay type: cell-based; conditions: NRS100 (COL)
# Procedure: as §1, §2
# [10] = test system: Pseudomonas aeruginosa ATCC 27853; assay type: cell-based; conditions: ATCC 27853
# Procedure: as §1, §2
# [11] = test system: Staphylococcus aureus NRS119; assay type: cell-based; conditions: NRS119
# Procedure: as §1, §2
# Enterococcus faecalis 99 = assay type: cell-based; conditions: 99
# Procedure: as §1, §2
# [12] = test system: Proteus mirabilis ATCC 35659; assay type: cell-based; conditions: ATCC 35659
# Procedure: as §1, §2
# [13] = test system: Klebsiella pneumoniae ATCC 33495; assay type: cell-based; conditions: ATCC 33495
# Procedure: as §1, §2
# [14] = test system: Serratia marcescens ATCC 13880; assay type: cell-based; conditions: ATCC 13880
# Procedure: as §1, §2
# [15] = test system: Proteus vulgaris ATCC 49132; assay type: cell-based; conditions: ATCC 49132
# Procedure: as §1, §2
# B. subtilis (ATCC 6633) = assay type: cell-based; conditions: ATCC 6633
# Summary of the method: (§3)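 MICs by broth microdilution per CLSI M7-A6 in cation-adjusted Mueller-Hinton broth, using 2:1 serial dilutions of peptoid and a bacterial inoculum of 1×10^6 CFU/mL. Values reproducible over three experiments, each with two parallel trials.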
# E. coli (ATCC 35218) = assay type: cell-based; conditions: ATCC 35218
# Summary of the method: as §3
# [16] = RP-HPLC elution solvent composition as measure of molecular hydrophobicity; assay type: physicochemical
# From the text: An initial set of 15 ampetoid analogs was synthesized to determine whether peptoids are affected by structural and sequence modifications in a manner consistent with AMP activities. The designs for ampetoids in this library were derived from two antibacterial and selective amphipathic dodecamers, 1 and 2. Peptoid 1 [H-(Nlys-Nspe-Nspe)4—NH2] is composed of 2/3 Nspe, the peptoid analog of phenylalanine, and 1/3 Nlys, the peptoid analog of lysine (see FIG. 1 for the structures of representative peptoid monomers and corresponding N-substituents). Peptoid 2 [H-(Nlys-Nssb-Nspe)4—NH2] contains 1/3 isoleucine-like Nssb monomers in place of Nspe. The variant sequences were designed to effect changes in chirality, length, hydrophobicity, charge, and amphipathicity. All of these compounds were tested for antibacterial activity against representative BSL1 Gram-negative (E. coli JM109) and Gram-positive (B. subtilis BR151) bacterial strains. As an initial measure of selectivity, the lytic activity of the peptoids was determined against human erythrocytes. Table 1 summarizes the sequences synthesized, the solvent composition at RP-HPLC elution as a relative measure of molecular hydrophobicity, and antibacterial and hemolytic activities.
# Following synthesis, peptoid oligomers can be cleaved from the resin, simultaneously removing the tert-butoxycarbonyl (Boc) protecting group from Nlys residues, by treatment with 10 ml 2,2,2-trifluoroacetic acid (TFA)/triisopropylsilane/H2O (95:2.5:2.5 by volume) for 30 min. The cleavage mixture is then diluted with 25 ml 50% aqueous acetonitrile, frozen, and lyophilized. Dilution and lyophilization is repeated twice more in order to remove excess TFA. Subsequent to cleavage, peptoids are each purified to >97% homogeneity by preparative scale reversed-phase HPLC using a Waters Prep LC 4000 system, with Waters 2487 dual-wavelength UV detection, and gradient elution (solvent A, 0.1 vol % trifluoroacetic acid (TFA) in water; solvent B, 0.1 vol % TFA in acetonitrile) through a Vydac (Hysperia, Calif.) 214TP101550 C4 peptide/protein column (10-15 μm, 300 Å, 5×25 cm). Following prep HPLC, peptoid purities and crude yields were determined from analytical scale HPLC, performed with a Waters 2695 Separations Module with a Waters 2487 dual-wavelength UV detector and gradient elution (solvent A, 0.1 vol % TFA in water; solvent B, 0.1 vol % TFA in acetonitrile) through a Vydac C4 214TP53 peptide/protein column (5 μm, 300 Å, 3.2×250 mm). The precise gradient employed for HPLC depended on the identity and hydrophobicity of the oligomer in question. All analytical HPLC was performed at 0.5 ml/min flow and 58° C. Preparative HPLC was performed at 50 ml/min flow and room temperature.
SMILES,HD10 (human erythrocytes),HD50 (human erythrocytes),IC50 [1] [µM],MIC Enterobacter aerogenes ATCC 35029 [2] [µM],MIC Enterococcus faecalis ATCC 29212 [3] [µM],MIC Staphylococcus aureus NRS120 [4] [µM],MIC Enterococcus faecium 106 (Enterococcus faecium 106) [µM],MIC Staphylococcus aureus VAN2 [5] [µM],MIC Escherichia coli ATCC 25922 [6] [µM],MIC Staphylococcus aureus ATCC 29213 [7] [µM],MIC Staphylococcus aureus VAN1 [8] [µM],MIC Staphylococcus aureus NRS100 (COL) [9] [µM],MIC Pseudomonas aeruginosa ATCC 27853 [10] [µM],MIC Staphylococcus aureus NRS119 [11] [µM],MIC Enterococcus faecalis 99 (Enterococcus faecalis 99) [µM],MIC P. mirabilis ATCC 35659 [12] [µg/mL],MIC Proteus mirabilis ATCC 35659 [12] [µM],MIC Klebsiella pneumoniae ATCC 33495 [13] [µM],MIC S. marcescens ATCC 13880 [14] [µg/mL],E. coli MIC (E. coli (ATCC 35218)) [µM],further results
"C[C@@H](c1ccccc1)N(CC(N)=O)C(=O)CN(Cc1ccccc1)C(=O)CN(CCCCN)C(=O)CN(C(=O)CN(Cc1ccccc1)C(=O)CN(CCCCN)C(=O)CN(C(=O)CN(Cc1ccccc1)C(=O)CN(CCCCN)C(=O)CN(C(=O)CN(Cc1ccccc1)C(=O)CNCCCCN)[C@@H](C)c1ccccc1)[C@@H](C)c1ccccc1)[C@@H](C)c1ccccc1 [1-Npm2,5,8,11, H-(Nlys-Npm-Nspe)4-NH2] (H-[Nlys][Nphe][Nspe][Nlys][Nphe][Nspe][Nlys][Nphe][Nspe][Nlys][Nphe][Nspe]-NH2)",87 µM,> 200 µM,6.8,36.3,4.5,9.1,2.3,4.5,4.5,4.5,4.5,4.5,36.3,9.1,36.3,>128,>72.6,9.1,>128,6.3,MIC Serratia marcescens ATCC 13880 [14]: >72.6 µM; MIC Proteus vulgaris ATCC 49132 [15]: 36.3 µM; B. subtilis MIC (B. subtilis (ATCC 6633)): 1.6 µM
"CC(C)[C@H](C)N(CC(N)=O)C(=O)CN(C(=O)CN(CCCCN)C(=O)CN(C(=O)CN(C(=O)CN(CCCCN)C(=O)CN(C(=O)CN(C(=O)CN(CCCCN)C(=O)CN(C(=O)CN(C(=O)CNCCCCN)[C@@H](C)C(C)C)[C@@H](C)C(C)C)[C@@H](C)C(C)C)[C@@H](C)C(C)C)[C@@H](C)C(C)C)[C@@H](C)C(C)C)[C@@H](C)C(C)C [1-Nsdpall, H-(Nlys-Nsdp-Nsdp)4-NH2]",>200/>200 μM,>200/>200 μM,64,–,–,–,–,–,–,–,–,–,–,–,–,–,–,–,–,50,"HPLC elution (% ACN) ([16]; Table 5, average of three injections, linear 5%-95% acetonitrile/water (0.1% TFA) over 45 minutes, C18 column, measure of hydrophobicity): 63.2 % ACN; B. subtilis MIC (B. subtilis (ATCC 6633); Table 6): 0.78 µM; E. coli MIC (E. coli (ATCC 35218); Table 6): 25 µM"
"C[C@@H](c1ccccc1)N(CC(N)=O)C(=O)CN(C(=O)CN(CCCCN)C(=O)[C@@H]1CCCN1C(=O)CN(C(=O)CN(CCCCN)C(=O)CN(C(=O)CN(C(=O)CN(CCCCN)C(=O)CN(C(=O)CN(C(=O)CNCCCCN)[C@@H](C)c1ccccc1)[C@@H](C)c1ccccc1)[C@@H](C)c1ccccc1)[C@@H](C)c1ccccc1)[C@@H](C)c1ccccc1)[C@@H](C)c1ccccc1 [1-Pro9, H-(Nlys-Nspe2)2-Nlys-Nspe-L-Pro-(Nlys-Nspe2)-NH2] (H-[Nlys][Nspe][Nspe][Nlys][Nspe][Nspe][Nlys][Nspe]P[Nlys][Nspe][Nspe]-NH2)",165 µM,> 200 µM,24,36.5,4.6,9.1,2.3,4.6,4.6,9.1,4.6,4.6,18.2,9.1,36.5,>128,>72.9,9.1,>128,12.5,MIC Serratia marcescens ATCC 13880 [14]: >72.9 µM; MIC Proteus vulgaris ATCC 49132 [15]: 36.5 µM; B. subtilis MIC (B. subtilis (ATCC 6633)): 1.6 µM
"CCC[C@H](C)N(CC(=O)N(CC(N)=O)[C@@H](C)c1ccccc1)C(=O)CN(CCCCN)C(=O)CN(C(=O)CN(C(=O)CN(CCCCN)C(=O)CN(C(=O)CN(C(=O)CN(CCCCN)C(=O)CN(C(=O)CN(C(=O)CNCCCCN)[C@@H](C)CCC)[C@@H](C)c1ccccc1)[C@@H](C)CCC)[C@@H](C)c1ccccc1)[C@@H](C)CCC)[C@@H](C)c1ccccc1 [2-Nsap2,5,8,11] (H-[Nlys][X2][Nspe][Nlys][X2][Nspe][Nlys][X2][Nspe][Nlys][X2][Nspe]-NH2)",–,–,–,–,–,–,–,–,–,–,–,–,–,–,–,–,–,–,–,–,"HPLC elution solvent ([16]; Table 1, percent acetonitrile in water, 0.1% (v/v) TFA at HPLC elution): 48%; HD10 (10% hemolytic dose) (human erythrocytes; red cells of human, 1 h): >120/>120 μM; HD50 (50% hemolytic dose) (human erythrocytes; red cells of human, 1 h): >120/>120 μM"
